In ChEMBL document CHEMBL1201862, “PubChem BioAssay data set” (2004):
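Tested at 5 concentrations; 48 h exposure; 96-well plates; endpoints linearly interpolated, else capped at highest concentration. GI50 = concentration required for 50% inhibition of growth.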 Activity calls are given as the source filed them. Rule as the data show it: active = GI50 up to about 1.1 µM and inactive = higher.

What was measured:
Assay in all cases: inhibition of tumour cell growth, NCI panel, 48 h
[1] = tested on: TK-10
[2] = tested on: LOX IMVI
[3] = tested on: MDA-N
[4] = tested on: SF-539
[5] = tested on: NCI-H226
[6] = tested on: M14
[7] = tested on: EKVX
[8] = tested on: COLO 205
[9] = tested on: SF-268
[10] = tested on: OVCAR-8
[11] = tested on: Malme-3M
[12] = tested on: SF-295
[13] = tested on: HOP-62
[14] = tested on: MDA-MB-231
[15] = tested on: SK-MEL-2
[16] = tested on: SN12C
[17] = tested on: CAKI-1
[18] = tested on: IGROV-1
[19] = tested on: DU-145
[20] = tested on: HCT-116

Row | Compound | GI50 [1] | GI50 [2] | GI50 [3] | GI50 [4] | GI50 [5] | GI50 [6] | GI50 [7] | GI50 [8] | GI50 [9] | GI50 [10] | GI50 [11] | GI50 [12] | GI50 [13] | GI50 [14] | GI50 [15] | GI50 [16] | GI50 [17] | GI50 [18] | GI50 [19] | GI50 [20]
1 | O=Nc1ccc(O)c2ncccc12 | 14.8 µM (inactive) | 3.89 µM (inactive) | 1.75 µM (inactive) | 1.44 µM (inactive) | 19.6 µM (inactive) | 6.03 µM (inactive) | 0.525 µM (active) | 16.1 µM (inactive) | 3.68 µM (inactive) | 3.47 µM (inactive) | 11.8 µM (inactive) | 8.05 µM (inactive) | 2.8 µM (inactive) | 6.43 µM (inactive) | 2.21 µM (inactive) | 8.18 µM (inactive) | 16.3 µM (inactive) | 5.46 µM (inactive) | 5.7 µM (inactive) | 0.822 µM (active)
2 | BrCC[N+]12CC[N+](CCBr)(CC1)C2 | > 100 µM (inactive) | > 100 µM (inactive) | > 100 µM (inactive) | > 100 µM (inactive) | > 100 µM (inactive) | > 100 µM (inactive) | > 100 µM (inactive) | > 100 µM (inactive) | > 100 µM (inactive) | > 100 µM (inactive) | > 100 µM (inactive) | > 100 µM (inactive) | 39.1 µM (inactive) | > 100 µM (inactive) | > 100 µM (inactive) | > 100 µM (inactive) | > 100 µM (inactive) | > 100 µM (inactive) | > 100 µM (inactive) | > 100 µM (inactive)
3 | COC(=O)/N=[N+](\[O-])C(c1ccccc1)c1ccccc1 | > 100 µM (inactive) | 69 µM (inactive) | 59.2 µM (inactive) | > 100 µM (inactive) | 38.6 µM (inactive) | 31.8 µM (inactive) | 27.6 µM (inactive) | 76.2 µM (inactive) | > 100 µM (inactive) | > 100 µM (inactive) | 27.1 µM (inactive) | – | – | > 100 µM (inactive) | 43.2 µM (inactive) | > 100 µM (inactive) | 76.6 µM (inactive) | 61.8 µM (inactive) | 42.6 µM (inactive) | > 100 µM (inactive)
4 | O=C(O)c1nn[nH]c1S | – | > 100 µM (inactive) | > 100 µM (inactive) | 30.6 µM (inactive) | > 100 µM (inactive) | > 100 µM (inactive) | > 100 µM (inactive) | > 100 µM (inactive) | > 100 µM (inactive) | > 100 µM (inactive) | > 100 µM (inactive) | > 100 µM (inactive) | > 100 µM (inactive) | > 100 µM (inactive) | > 100 µM (inactive) | > 100 µM (inactive) | > 100 µM (inactive) | > 100 µM (inactive) | > 100 µM (inactive) | > 100 µM (inactive)
5 | COc1ccc(/C=C2/CSC/C(=C/c3ccc(OC)c(OC)c3)C2=O)cc1OC | 3.9 µM (inactive) | 1.27 µM (inactive) | 2.58 µM (inactive) | 2.03 µM (inactive) | 1.92 µM (inactive) | 3.04 µM (inactive) | 5.86 µM (inactive) | 2.24 µM (inactive) | 1.99 µM (inactive) | 0.664 µM (active) | 4.71 µM (inactive) | 2.44 µM (inactive) | 3.67 µM (inactive) | 3.28 µM (inactive) | 2.56 µM (inactive) | 1.77 µM (inactive) | 3.49 µM (inactive) | 2.28 µM (inactive) | 2.88 µM (inactive) | 0.971 µM (active)
6 | Cc1[nH]c(=O)[nH]c(=S)c1C(=O)NC(C)(CO)CO | > 100 µM (inactive) | > 100 µM (inactive) | > 100 µM (inactive) | > 100 µM (inactive) | > 100 µM (inactive) | > 100 µM (inactive) | > 100 µM (inactive) | > 100 µM (inactive) | > 100 µM (inactive) | > 100 µM (inactive) | > 100 µM (inactive) | > 100 µM (inactive) | > 100 µM (inactive) | > 100 µM (inactive) | > 100 µM (inactive) | > 100 µM (inactive) | > 100 µM (inactive) | > 100 µM (inactive) | > 100 µM (inactive) | > 100 µM (inactive)
7 | C=C1C(=O)C[C@H]2C(=C)C(=O)O[C@@H]2C2C1CC[C@@]2(C)O (some centres not stated) | 21.1 µM (inactive) | 17.5 µM (inactive) | 29.7 µM (inactive) | 26.8 µM (inactive) | 22.2 µM (inactive) | 16.1 µM (inactive) | 62.8 µM (inactive) | 14.5 µM (inactive) | > 100 µM (inactive) | 31.7 µM (inactive) | 16.3 µM (inactive) | > 100 µM (inactive) | 31.3 µM (inactive) | 25.1 µM (inactive) | 21.5 µM (inactive) | 42.6 µM (inactive) | 16.7 µM (inactive) | 33.1 µM (inactive) | 73.3 µM (inactive) | 31.8 µM (inactive)
